Values belong to the compound of their own block, whether it stands above or below them.
Assays:
[1] = molecular target: T1, KHK-C (Homo sapiens, UniProt P50053); experiment: In vitro KHK kinase inhibitory activity test (ADP-Glo); type: biochemical; conditions: 1 nM KHK-C, 100 µM ATP, 200 µM D-Fructose
T1 construct: purchased Origene TP323488
T1 sequence (P50053 1-298): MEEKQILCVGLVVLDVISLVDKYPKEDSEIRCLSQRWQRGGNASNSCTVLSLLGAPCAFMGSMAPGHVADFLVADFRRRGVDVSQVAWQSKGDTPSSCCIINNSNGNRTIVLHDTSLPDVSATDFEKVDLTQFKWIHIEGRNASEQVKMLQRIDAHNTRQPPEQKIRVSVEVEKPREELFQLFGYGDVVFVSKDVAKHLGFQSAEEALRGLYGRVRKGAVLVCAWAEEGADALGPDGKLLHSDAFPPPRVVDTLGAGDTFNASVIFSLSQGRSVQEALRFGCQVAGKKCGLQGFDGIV
Experimental: 1) DMSO was used to prepare the compound of the present invention and a control drug to 10 mM, which was used as a testing stock solution.
2) The compound stock solution of the present invention was diluted 10-fold to 1 mM, and then the compound of the present invention was diluted in gradient 3-fold to 11 concentrations, with the highest concentration of 1 mM. The control drug stock solution was diluted 100-fold to 0.1 mM, and then the control drug was diluted in gradient 3-fold to 11 concentrations, with the highest concentration of 0.1 mM.
3) 0.1 µL of the diluted compound of the present invention and 0.1 µL of the diluted control drug were transferred by using Echo550 to a 384-well plate respectively, with two repeated wells set for each concentration, and centrifuged at 1,000 rpm for 1 min.
1) 5 µL of KHK-C kinase working fluid was added to a 384-well plate, centrifuged at 1,000 rpm for 1 min, and then incubated at a room temperature of 25° C. for 15 min. […]
3) After the reaction was completed, fluorescence value LUM was read on Envision.
Inhibition (% inh) was calculated by using the following equation: […]
IC50 was calculated by curve fitting with software.

[2] = Stability investigation of crystal forms A, B, C, D and the amorphous form of the compound of formula (1) (related substances by HPLC, moisture, XRD, DSC); type: physicochemical
Experimental: (§1) 2.1 Investigation conditions for the crystal form A of the compound of formula (1): • placed at 105° C. for 5 days, opened, and sampled for testing on day 5; • placed at 60° C. for 10 days, opened/closed, and sampled for testing on day 10; • placed at 25° C. and RH 92.5% for 10 days, opened/closed, and sampled for testing on day 10; • placed at 40° C. and RH 75% for one month, opened/closed, and sampled for testing on the last day of the month; and • under illumination, employing a closed way (polyethylene bag + composite film bag) to meet illumination requirements, and sampled for testing.
Illumination requirements: ICH Q1B Stability Testing: Photostability Testing of New Drug Substances and Products.
Determination of related substances: determined according to 0512 HPLC in General Principle (Volume IV) of Chinese Pharmacopoeia (2015 Version).
Moisture determination: determined according to 2 Coulometric Titration in the First Method (Karl Fischer titration) of 0832 Moisture Determination Method in General Principle (Volume IV) of Chinese Pharmacopoeia (2015 Version).
XRD determination: determined according to the Second Method-Powder X-ray Diffraction Method of 0451 X-ray Diffraction Method in General Principle (Volume IV) of Chinese Pharmacopoeia (2015 Version).
DSC determination: precisely weighing an appropriate amount of sample in a Standard disc, covering the Standard disc, placing the Standard disc in a sample disc position in a DSC furnace, placing a blank disc of the same type in a reference position, and carrying out the following temperature rise program:
1. Equilibrate at 25° C.; and
as §1, with “B” for “A”
as §1, with “C” for “A”
1. Equilibrate at 25° C.; and 2. Ramp 10° C. to 200° C.
as §1, with “D” for “A”
as §1, with “amorphous” for “crystal”, “form” for “form A”, “(1):” for “(1): • placed at 105° C. for 5 days, opened, and sampled for testing on day 5;”

[3] = tested on: D-Fructose-induced fructose-1-phosphate in HepG2 cells; experiment: In vitro cell inhibitory activity test: D-Fructose-induced fructose-1-phosphate in HepG2 cells (LC-MS); type: cell-based; conditions: D-Fructose 3 h, read-out: EC50 (nM), inhibition of D-Fructose-induced fructose-1-phosphate
Experimental: 1) HepG2 cells in logarithmic growth phase were collected and counted by using a […]. Cell viability was detected by trypan blue exclusion method to ensure that the cell viability was above 90%.
2) A concentration of the HepG2 cells was adjusted, and 81 µL of FBS-free basal medium (starvation treated) cell suspension was added to each 96-well plate with a testing well cell inoculation quantity of 5 × 10^4.
3) The HepG2 cells in the 96-well plates were cultured overnight at 37° C., 5% CO2, and 95% humidity.
1) Before dosing, 9 µL of FBS was added into testing wells of the 96-well plate, and the starvation treatment was stopped.
2) A 10-fold compound solution was prepared, with the highest concentration of 100 µM, 8 concentrations and 3-fold gradient dilution. 10 µL of drug solution was added to each well of the 96-well plate inoculated with the cells, and three repeated wells were set for each drug concentration. 10 µL of 1% DMSO solution was added to the solvent control group, and three repeated wells were set.
3) The cells in the 96-well plates added with the drug were incubated at 37° C., 5% CO2, and 95% humidity for 30 min.
4) A 11-fold D-Fructose solution was prepared, with a concentration of 220 mM. […]
Data were analyzed by GraphPad Prism 5.0 software, a dose-effect curve was obtained by using nonlinear S-curve regression, and the EC50 value was calculated.

[4] = 25° C., RH 92.5%, closed, 10 days
[5] = 25° C., RH 92.5%, opened, 10 days

IC50 [1]: 0.82 nM
Structure (SMILES): C[C@H]1CCN1c1nc(N2C[C@@H]3[C@@H](CC(=O)O)[C@@H]3C2)c2c(n1)C(F)(F)CC2 [Compound of formula (1), 2-((1R,5S,6R)-3-(7,7-difluoro-2-((S)-2-methylazetidin-1-yl)-6,7-dihydro-5H-cyclopenta[d]pyrimidin-4-yl)-3-azabicyclo[3.1.0]hexan-6-yl)acetic acid]

DSC ([2]; 0 day): 167.79 °C
Moisture % ([2]; 0 day): 0.066%
Total related % ([2]; 0 day): 0.37%
Trait ([2]; 0 day): Off-white power
DSC [2, 4]: 167.46 °C
Moisture % [2, 4]: 0.092%
Total related % [2, 4]: 0.38%
Trait [2, 4]: Off-white power
XRD [2, 4]: Same as day 0
DSC [2, 5]: 167.51 °C
Moisture % [2, 5]: 0.048%
Total related % [2, 5]: 0.38%
Trait [2, 5]: Off-white power
XRD [2, 5]: Same as day 0
DSC ([2]; 40° C., RH 75%, closed, 1 M): 167.77 °C
Moisture % ([2]; 40° C., RH 75%, closed, 1 M): 0.065%
Total related % ([2]; 40° C., RH 75%, closed, 1 M): 0.38%
Trait ([2]; 40° C., RH 75%, closed, 1 M): Off-white power
XRD ([2]; 40° C., RH 75%, closed, 1 M): Same as day 0
DSC ([2]; 40° C., RH 75%, opened, 1 M): 167.75 °C
Moisture % ([2]; 40° C., RH 75%, opened, 1 M): 0.12%
Total related % ([2]; 40° C., RH 75%, opened, 1 M): 0.39%
Trait ([2]; 40° C., RH 75%, opened, 1 M): Off-white power
XRD ([2]; 40° C., RH 75%, opened, 1 M): Same as day 0
DSC ([2]; 60° C., closed, 10 days): 167.43 °C
Moisture % ([2]; 60° C., closed, 10 days): 0.089%
Total related % ([2]; 60° C., closed, 10 days): 0.40%
Trait ([2]; 60° C., closed, 10 days): Off-white power
XRD ([2]; 60° C., closed, 10 days): Same as day 0
DSC ([2]; 60° C., opened, 10 days): 167.41 °C
Moisture % ([2]; 60° C., opened, 10 days): 0.079%
Total related % ([2]; 60° C., opened, 10 days): 0.41%
Trait ([2]; 60° C., opened, 10 days): Off-white power
XRD ([2]; 60° C., opened, 10 days): Same as day 0
DSC ([2]; 105° C., opened, 5 days): 167.19 °C
Moisture % ([2]; 105° C., opened, 5 days): 0.045%
Total related % ([2]; 105° C., opened, 5 days): 0.51%
Trait ([2]; 105° C., opened, 5 days): Off-white power
XRD ([2]; 105° C., opened, 5 days): Same as day 0
DSC ([2]; Avoid light for 18 days): 167.49 °C
Moisture % ([2]; Avoid light for 18 days): 0.048%
Total related % ([2]; Avoid light for 18 days): 0.38%
Trait ([2]; Avoid light for 18 days): Off-white power
XRD ([2]; Avoid light for 18 days): Same as day 0
Stability, testing conclusion ([2]; under the above conditions (all placement conditions of the study)): relatively stable
Structure (SMILES): C[C@H]1CCN1c1nc(N2C[C@@H]3[C@@H](CC(=O)O)[C@@H]3C2)c2c(n1)C(F)(F)CC2 [Crystal form D, 2-((1R,5S,6R)-3-(7,7-difluoro-2-((S)-2-methylazetidin-1-yl)-6,7-dihydro-5H-cyclopenta[d]pyrimidin-4-yl)-3-azabicyclo[3.1.0]hexan-6-yl)acetic acid]

EC50 [3]: 169 nM
Structure (SMILES): C[C@H]1CCN1c1nc(N2C[C@@H]3[C@@H](CC(=O)O)[C@@H]3C2)cc(C(F)(F)F)n1 [PF-06835919]
